Where a name gives a salt, the structure may show the parent alone.

Test [1] addresses T1, DBH (Homo sapiens, UniProt P09172).
T1 sequence (P09172 1-617): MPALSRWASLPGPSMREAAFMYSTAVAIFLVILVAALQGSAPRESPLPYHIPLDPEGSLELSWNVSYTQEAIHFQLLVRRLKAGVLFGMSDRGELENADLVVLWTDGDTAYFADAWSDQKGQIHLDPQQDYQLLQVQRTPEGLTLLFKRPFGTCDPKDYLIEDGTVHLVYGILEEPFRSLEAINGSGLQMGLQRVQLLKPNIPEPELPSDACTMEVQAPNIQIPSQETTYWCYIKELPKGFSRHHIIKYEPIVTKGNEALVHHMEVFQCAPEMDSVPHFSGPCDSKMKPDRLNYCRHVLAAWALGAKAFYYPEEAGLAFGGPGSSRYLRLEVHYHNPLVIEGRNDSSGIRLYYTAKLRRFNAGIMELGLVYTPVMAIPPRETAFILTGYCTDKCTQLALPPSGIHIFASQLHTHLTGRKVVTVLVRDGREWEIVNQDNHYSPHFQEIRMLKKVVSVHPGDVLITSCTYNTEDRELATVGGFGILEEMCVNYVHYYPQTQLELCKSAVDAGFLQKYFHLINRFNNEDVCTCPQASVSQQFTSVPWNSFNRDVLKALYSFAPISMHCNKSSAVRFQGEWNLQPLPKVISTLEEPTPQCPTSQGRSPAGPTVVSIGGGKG
Conditions: literature reports; cited from earlier work.

The conditions of test [2]: Ehrreich et al., 1976; cited from earlier work.
Test [3] has as its system spontaneously hypertensive rats. The test is described as follows: mean arterial blood pressure in spontaneously hypertensive rats (indwelling tail artery cannulae). It counts as in vivo, rat. The note with it: 50 mg/kg intraperitoneally. The protocol:
Further, spontaneously hypertensive rats were treated with a suspension or solution of N-(2-aminoethyl)-1-(3,5-difluorobenzyl)-2-mercaptoimidazole-5-carboxamide,formate at a dose of 50 mg/kg intraperitoneally, and mean arterial blood pressure was monitored for 260 minutes using indwelling cannulae in the tail arteries.

As to `O=C(O)c1ccc(CCC(Br)CBr)cn1` (stereo not drawn) [5-(3,4-dibromobutyl)picolinic acid], the “DBH inhibition (in words)” value in test [1] is given as “DBH inhibitors”.

In the case of `O=C(O)c1ccc(CCCCCl)cn1` [5-(4-chlorobutyl) picolinic acid], in test [1], the “DBH inhibition (in words)” value is recorded as “inhibit DBH”. For `CN(C)C(=S)SCc1ccc(C(=O)O)nc1` [5-(dimethyldithiocarbamoylmethyl)picolinic acid], the “DBH inhibition (in words)” value in test [1] was “DBH inhibitors”. Take `NOCc1ccccc1` [Benzyloxyamine]: the “DBH inhibition (in words)” value in test [1] was “apparently act as competitive inhibitors”. Take `CCCCc1ccc(C(N)=O)nc1` [Bupicomide, 5-(n-butyl)picolinamine]: the antihypertensive activity result in test [2] is listed as “antihypertensive activity”. In test [1], the “DBH inhibition (in words)” value was “DBH inhibitor”. In the case of `NCCNC(=O)c1cnc(S)n1Cc1cc(F)cc(F)c1` [N-(2-Aminoethyl)-1-(3,5-difluorobenzyl)-2-mercaptoimidazole-5-carboxamide,formate], the “blood pressure reduction compared to vehicle-treated controls” value in test [3] (suspension or solution, mean arterial blood pressure, within 30 minutes following treatment) is recorded as “significant blood pressure reductions”. For the same molecule, the “time to significant blood pressure reduction” value in test [3] (versus vehicle-treated controls) was at most 30 min. In the case of `NNCc1ccccc1` [benzylhydrazine], in test [1], the “DBH inhibition (in words)” value is on record as “apparently act as competitive inhibitors”.
